Laboratory results published in patent US11834414B2, “1-methyl-4-[(4-phenylphenyl)sulfonylmethyl]cyclohexyanol and 1-methyl-4-[[4-(2-pyridyl)phenyl]sulfonylmethyl]cyclohexanol compounds and their therapeutic use” (Modern Biosciences Limited, priority 2018, dated 2023).
pIC50: −log10 of the molar value.

Legend:
[1] = test system: Thp1 human monocytic cells; assay: Thp1 Monocyte ATP Production Assay; assay type: cell-based; conditions: for pIC50: Homo sapiens, THP-1, 24 h, Thp1 cells, 24 hour incubation, ATPLite, 9-point range 10 μM to 10 nM, mean of 2 independent experiments
In short: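 Cells plated at 112500/well in glucose-free RPMI-1640 with 1% FBS and exposed to compound for 24 h at 37 °C/5% CO2. ATP quantified by luciferase luminescence (ATPlite) and expressed as % of control viability. IC50 from 4-parameter fit, mean of two experiments.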

[2] = test system: cytochrome P450 (CYP450) enzymes
[3] = Human hepatocyte stability; assay type: in vitro ADME; conditions: human, pooled human hepatocytes, human hepatocytes, 1 μM, 60 minute incubation; for hepatocyte CLint at 1 μM: read-out: Human Clint (uL/min/million cells); for half-life at 1 μM: read-out: Human t1/2
In short: (§1)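 Compounds (1 μM final, 0.1% DMSO, 0.9% acetonitrile) were incubated in duplicate with pooled rat or human hepatocytes at 37° C, sampled at 0–60 min and quenched with methanol. Remaining parent was measured by LC-MS/MS. Elimination rate constant came from the ln(concentration)–time slope, giving t1/2 and CLint scaled to hepatocyte concentration.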

[4] = molecular target: CYP1A2 (Homo sapiens (Human), UniProt P05177); assay: Human Cytochrome P450 Inhibition Assay (Bactosomes)
Sequence of CYP1A2 (P05177 whole entry): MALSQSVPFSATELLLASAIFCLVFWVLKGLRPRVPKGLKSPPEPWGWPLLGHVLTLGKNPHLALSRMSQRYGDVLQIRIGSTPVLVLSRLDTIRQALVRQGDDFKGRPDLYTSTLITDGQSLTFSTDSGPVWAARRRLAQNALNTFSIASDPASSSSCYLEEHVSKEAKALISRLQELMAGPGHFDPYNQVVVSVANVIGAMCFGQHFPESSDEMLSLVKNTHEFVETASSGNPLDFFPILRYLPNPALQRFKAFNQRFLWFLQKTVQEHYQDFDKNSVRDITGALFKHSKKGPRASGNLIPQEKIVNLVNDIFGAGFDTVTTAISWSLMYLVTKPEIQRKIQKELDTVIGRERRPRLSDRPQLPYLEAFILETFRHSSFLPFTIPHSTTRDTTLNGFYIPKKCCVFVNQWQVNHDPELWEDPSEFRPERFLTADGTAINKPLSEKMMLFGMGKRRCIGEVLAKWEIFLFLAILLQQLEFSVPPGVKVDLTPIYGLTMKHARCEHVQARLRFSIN

[5] = Rat hepatocyte stability; assay type: in vitro ADME; conditions: rat, pooled rat hepatocytes, 60 minute incubation; for hepatocyte CLint at 1 μM: read-out: Rat Clint (μL/min/million cells); for half-life at 1 μM: read-out: Rat t1/2
In short: as §1

[6] = test system: collagen-induced arthritis in DBA/1j mice; assay: Mouse Collagen-Induced Arthritis; assay type: in vivo; conditions: 10 mg/kg/day, once daily for 14 days, arthritic index vs control
Description: Seven- to eight-week-old male DBA/1j mice were used for all procedures. Animals were housed in groups of 10, and were maintained at 21° C.±2° C. on a 12-hour light/dark cycle with food and water ad libitum. Complete Freund's adjuvant (CFA) was prepared by emulsifying bovine type II collagen at 4 mg/mL with a 4 mg/mL suspension of Mycobacterium tuberculosis H37Ra in Incomplete Freund's Adjuvant (IFA) (0.85 mL paraffin oil and 0.15 mL mannide monooleate) in a 1:1 (v/v) ratio. All mice were immunised subcutaneously with 200 μg of bovine type II collagen in CFA. 21 days later, all mice were immunised subcutaneously with 100 μg of bovine type II collagen in IFA. The mice started to develop signs and symptoms of arthritis following the ‘booster’ immunisation.
For macroscopic assessment of arthritis, the following signs were monitored in each paw of each mouse three times per week and summed to generate the Arthritic Index (AI) (the maximum AI for one animal is 16): • 0=no visible effects of arthritis. • 1=oedema and/or erythema of 1 digit. • 2=oedema and/or erythema of 2 digits. • 3=oedema and/or erythema of more than 2 digits. • 4=severe arthritis of entire paw and digits.
Animals were sorted into treatment groups with a mean arthritic index of 2.5 and then dosed once daily for 14 days with compound: by oral gavage for test compounds, or by subcutaneous injection at a dose of 10 mg/kg for the positive control, etanercept. After completion of the experiment, the mice were sacrificed.
The data were analysed by generating an average of the arthritic index across each treatment group. The mean arthritic index was then compared to the arthritic index of control (untreated) animals using the following formula to generate a percentage inhibition of disease.

[7] = molecular target: CYP2C19 (Homo sapiens (Human), UniProt P33261); assay: Human Cytochrome P450 Inhibition Assay (Bactosomes); assay type: in vitro ADME; conditions: recombinant Bactosomes, 10 minutes, 37° C.
Sequence of CYP2C19 (P33261 whole entry): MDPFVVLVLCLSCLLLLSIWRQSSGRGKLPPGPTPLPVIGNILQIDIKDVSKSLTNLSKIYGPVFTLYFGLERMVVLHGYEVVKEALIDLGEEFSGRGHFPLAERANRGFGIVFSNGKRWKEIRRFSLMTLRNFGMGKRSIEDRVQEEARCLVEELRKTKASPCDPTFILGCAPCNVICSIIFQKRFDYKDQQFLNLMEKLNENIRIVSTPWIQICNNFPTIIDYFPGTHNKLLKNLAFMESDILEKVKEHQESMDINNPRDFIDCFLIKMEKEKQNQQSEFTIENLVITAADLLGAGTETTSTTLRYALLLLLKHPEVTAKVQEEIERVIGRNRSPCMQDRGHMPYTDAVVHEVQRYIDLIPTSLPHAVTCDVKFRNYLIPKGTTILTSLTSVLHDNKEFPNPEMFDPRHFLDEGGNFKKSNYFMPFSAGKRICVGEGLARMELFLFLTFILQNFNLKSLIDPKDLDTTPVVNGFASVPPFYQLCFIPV

Compound | pIC50 [1] | drug-drug interaction liability, CYP450 inhibition profile (in words) [2] | hepatocyte CLint at 1 μM [3] [µL/min/1e6 cells] | half-life at 1 μM [3] [h] | pIC50 [4] | hepatocyte CLint at 1 μM [5] [µL/min/1e6 cells] | half-life at 1 μM [5] [h] | % inhibition of disease [6] [%] | pIC50 [7] | potency in the Thp1 monocytic ATP assay (in words) ([1]; compared to the reference compounds)
C[C@]1(O)CC[C@@H](CS(=O)(=O)c2ccc(-c3ncc(F)cc3F)c(F)c2)CC1 [CHMSA-03-A, cis-4-(((4-(3,5-difluoropyridin-2-yl)-3-fluorophenyl)sulfonyl)methyl)-1-methylcyclohexan-1-ol] | 6.15 | particularly good profile | < 3 | > 7.67 | < 4.30 | 14.4 | 1.52 | 62 | < 4.30 | –
C[C@]1(O)CC[C@@H](CS(=O)(=O)c2ccc(-c3ccc(C#N)cc3F)cc2C(F)(F)F)CC1 [CHMSA-02-A, 2-fluoro-4′-(((cis-4-hydroxy-4-methylcyclohexyl)methyl)sulfonyl)-3′-(trifluoromethyl)-[1,1′-biphenyl]-4-carbonitrile] | 7.00 | particularly good profile | < 3.3 | > 6.87 | < 4.30 | 102 | 0.217 | – | < 4.30 | excellent potency
C[C@]1(O)CC[C@@H](CS(=O)(=O)c2ccc(-c3ccc(C#N)cc3F)cc2)CC1 [CHMSA-01-A, 2-fluoro-4′-(((cis-4-hydroxy-4-methylcyclohexyl)methyl)sulfonyl)-[1,1′-biphenyl]-4-carbonitrile] | 6.15 | particularly good profile | 3.7 | 5.91 | < 4.30 | 12.4 | 1.77 | 63 | < 4.30 | –
C[C@]1(O)CC[C@H](NS(=O)(=O)c2ccc(-c3ccc(Cl)cc3C#N)cc2)CC1 [HMC-C-01-A, reference compound] | 6.20 | – | 7.6 | 2.57 | 4.60 | 188 | 0.117 | 40 | < 4.60 | –
